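A five-concentration, 48-hour dose response in 96-well plates underlies each endpoint, interpolated linearly between surrounding concentrations. At the GI50, growth is halved.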 Activity calls are given as the source filed them. Cut-off read from the data, not from the text of the source: active = GI50 up to about 1.1 µM and inactive = higher. Starred links: 1 amine or outer side, 2 acyl side, 3 side chain; linkers in the order of their positions; H or OH if unused. Positions of bridges follow the written chain, without caps; N, C: chain ends. Non-standard residues stand in square brackets, D forms with d. Residues, ends and D or L forms follow the SMILES beside them. Chains are numbered I, II in the order given. Actinocin(1to9) = Cc1c2oc3c(C)ccc(C(=O)[*:2])c3nc-2c(C(=O)[*:1])c(N)c1=O; NMeV = CN[CH](C(=O)O)C(C)C; Sar = CNCC(=O)O
Assays:
Assay in all cases: DTP human tumour cell line panel, 48 h
[1] = test system: 786-0
[2] = test system: A498
[3] = test system: A549
[4] = test system: CAKI-1
[5] = test system: DU-145
[6] = test system: EKVX
[7] = test system: HCC 2998
[8] = test system: HCT-15
[9] = test system: HL-60
[10] = test system: Hs-578T
[11] = test system: M14
[12] = test system: MDA-MB-435
[13] = test system: OVCAR-4
[14] = test system: OVCAR-5
[15] = test system: PC-3
[16] = test system: SK-MEL-2
[17] = test system: SK-OV-3
[18] = test system: SNB-75
[19] = test system: U-251
[20] = test system: UACC-257

Compound | GI50 [1] | GI50 [2] | GI50 [3] | GI50 [4] | GI50 [5] | GI50 [6] | GI50 [7] | GI50 [8] [µM] | GI50 [9] | GI50 [10] | GI50 [11] | GI50 [12] | GI50 [13] | GI50 [14] | GI50 [15] | GI50 [16] | GI50 [17] | GI50 [18] | GI50 [19] | GI50 [20]
O=C(NCc1ccccc1)c1cc2ccccc2o/c1=N\c1cccc(C(F)(F)F)c1 | 29.8 µM (inactive) | 85.1 µM (inactive) | 47.1 µM (inactive) | > 100 µM (inactive) | > 100 µM (inactive) | > 100 µM (inactive) | 21.2 µM (inactive) | 36.9 | 20.5 µM (inactive) | > 100 µM (inactive) | 87.3 µM (inactive) | 46 µM (inactive) | 69.7 µM (inactive) | > 100 µM (inactive) | 44.3 µM (inactive) | 28.6 µM (inactive) | > 100 µM (inactive) | 74.8 µM (inactive) | 71 µM (inactive) | 29.5 µM (inactive)
COC1=C(OC)C(=O)c2cc(C)c(=O)c(C)cc2C1=O | 11.9 µM (inactive) | 24.2 µM (inactive) | 20.2 µM (inactive) | 17.3 µM (inactive) | 16.9 µM (inactive) | 17.3 µM (inactive) | 22.4 µM (inactive) | 21.3 | 2.82 µM (inactive) | 23.1 µM (inactive) | 16.9 µM (inactive) | 1.8 µM (inactive) | 2.83 µM (inactive) | 31.3 µM (inactive) | 20.3 µM (inactive) | 17.3 µM (inactive) | 22 µM (inactive) | 18.4 µM (inactive) | 17.2 µM (inactive) | 11.2 µM (inactive)
Nc1cccc(CCN2CCN(CCCc3ccccc3)CC2)c1 | 18.2 µM (inactive) | 47.5 µM (inactive) | 34.4 µM (inactive) | 53.3 µM (inactive) | 55.1 µM (inactive) | > 100 µM (inactive) | 15 µM (inactive) | 18 | 17.2 µM (inactive) | 25.1 µM (inactive) | 17.6 µM (inactive) | 18.6 µM (inactive) | 39.9 µM (inactive) | > 100 µM (inactive) | 70.1 µM (inactive) | > 100 µM (inactive) | > 100 µM (inactive) | > 100 µM (inactive) | 46.2 µM (inactive) | 24.2 µM (inactive)
O=C1CC(n2cccc2)c2c(Br)sc(Br)c21 (stereo not given) | 18.3 µM (inactive) | 24.9 µM (inactive) | 21 µM (inactive) | 6.49 µM (inactive) | 16.6 µM (inactive) | 16 µM (inactive) | 15.4 µM (inactive) | 12.8 | 15.1 µM (inactive) | 25.1 µM (inactive) | 14.9 µM (inactive) | 14.4 µM (inactive) | 16.7 µM (inactive) | 17.7 µM (inactive) | 16.4 µM (inactive) | 14.5 µM (inactive) | 19.4 µM (inactive) | 18.7 µM (inactive) | 15.2 µM (inactive) | 15.1 µM (inactive)
CCC(C)C1NC(=O)C(NC(=O)c2c3nc4c(C(=O)NC5C(=O)NC(C(C)CC)C(=O)N6CCCC6C(=O)N(C)CC(=O)N(C)C(C(C)C)C(=O)OC5C)ccc(C)c4oc-3c(C)c(=O)c2N)C(C)OC(=O)C(C(C)C)N(C)C(=O)CN(C)C(=O)C2CCCN2C1=O (stereo not given) (I: TIP[Sar][NMeV] / II: TIP[Sar][NMeV]; ester I:1-I:C, II:1-II:C; linker I:N-II:N via Actinocin(1to9); configuration not given here) | 0.000195 µM (active) | 0.0102 µM (active) | 0.000753 µM (active) | 0.0059 µM (active) | 0.011 µM (active) | 0.0145 µM (active) | 0.013 µM (active) | 0.0172 | < 0.0001 µM (active) | 0.0065 µM (active) | < 0.00995 µM (active) | 0.000539 µM (active) | 0.00625 µM (active) | 0.00459 µM (active) | 0.000895 µM (active) | 0.00101 µM (active) | 0.0208 µM (active) | 0.00319 µM (active) | < 0.0001 µM (active) | < 0.0001 µM (active)

From ChEMBL document CHEMBL1201862, “PubChem BioAssay data set” (2004)
